Test results as given in patent US20150368617A1, “METHOD FOR FORMING ENDOTHELIAL CELLS” (Korea Advanced Institute of Science and Technology (KAIST), priority 2012, published 2015).
Entries after “also recorded” stand apart in the source; their conditions may differ.

Assays:
Assay type in all cases: cell-based, mouse
CD144+ ECs [1] = assay: BrdU/7-AAD cell cycle analysis and BrdU incorporation in differentiating Flk1+ MPCs
Protocol: Apoptosis assay was performed as previously described. To determine the cell cycle, BrdU/7-AAD cell cycle analysis was performed according to the manufacturer's instructions (BD Pharmingen™). Briefly, cells were incubated with BrdU (1 mM) for 1 hr, dissociated with dissociation buffer, and stained with anti-CD144 antibody. The cells were then fixed, permeabilized, and fixed once more, followed by 1 hr incubation with DNase I (200 U) at 37┌ C. After incubation with FITC-conjugated anti-BrdU antibody for 20 min at RT, the cells were stained with 7-AAD. The cells were analyzed by FACS Aria II and the data were analyzed using FlowJo software.

Flk1+ MPCs = assay: Western blotting of signaling proteins in Flk1+ MPCs
Protocol: FIGS. 10A-10B. PI3-kinase/Akt signaling and MyPT-MLC signaling are involved in ROCK suppression-induced expansion of ECs. Flk1+ MPCs were incubated with indicated agents for 2 days, and analyses were performed on day 6.5. (FIG. 10A) Immunoblotting for pPTEN, PTEN, pAkt, Akt, pERK, ERK, pMyPT, MyPT, pMLC, MLC, ┌ SMA and GAPDH in Flk1+ MPCs treated with PBS (Control), Y27632 (10┌ M), VEGF-A (50 ng/ml; VA), or VA plus Y27632. The Flk1+ MPCs were cultured for 12 hrs, starved for 6 hrs with or without Y27632, and then treated with VEGF-A (50 ng/ml) for 10 min. Results from four independent trials were similar to each other. (FIG. 10B) Quantitative analyses of phosphorylations of AKT, PTEN, MyPT and MLC. Signal intensities were quantitatively evaluated using Image J software. Intensity of phosphorylated/total form of each protein in Control is regarded as 1 and relative intensities are expressed as fold. The mean of relative values from four independent experiments are represented. *p<0.01 versus Control. ^#p<0.01 versus VEGF-A. N.D represents non-detected.
Cell lysates were separated by SDS-PAGE gel and transferred to PVDF membranes for Western Blot analysis. After blocking with 5% skim milk, the membranes were first incubated with primary antibodies in blocking buffer overnight at 4┌ C, then with HRP-conjugated secondary antibodies for 1 hr at RT. The following primary antibodies were used: anti-RhoA (mouse monoclonal, Cytoskeleton Inc.), anti-ROCK1 (mouse monoclonal, Santa Cruz), anti-ROCK2 (rabbit polyclonal, Santa Cruz), anti-┌-tubulin (mouse monoclonal, Santa Cruz), anti-phospho-PTEN (Ser380/Thr382/383)(clone 44A7, Cell Signaling), anti-PTEN (clone 138G6, Cell Signaling), anti-phospho-Akt (Ser473)(clone 193H12, Cell Signaling), anti-Akt (rabbit polyclonal, Cell Signaling), anti-phospho-ERK (Thr202/Tyr204) (clone 20G11, Cell Signaling), anti-ERK (rabbit monoclonal, Cell Signaling), anti-phospho-MyPT (Thr696) (rabbit polyclonal, Cell Signaling), anti-MyPT (rabbit polyclonal, Cell Signaling), anti-phospho-MLC (Thr18/Ser19) (rabbit polyclonal, Cell Signaling), anti-MLC (rabbit polyclonal, Cell Signaling), anti-┌ SMA (rabbit polyclonal, Novus Biologicals), anti-GAPDH (rabbit polyclonal, Santa Cruz), anti-phospho-VEGFR2 (Tyr1175) (clone 19A10, Cell Signaling), and anti-VEGFR2 (clone 55B11, Cell Signaling). The secondary antibodies used were rabbit anti-mouse IgG-HRP (Santa Cruz) and goat anti-rabbit IgG-HRP (Santa Cruz). Signals were developed with enhanced chemiluminescence HRP substrate (Millipore) and detected using LAS-3000 mini (Fuji film).

CD144+ ECs [2] = assay: FACS phenotypic analysis of EC and MC markers at day 6.5
Protocol: FIGS. 12A to 12B-6. ROCK suppression-induced ECs express EC-specific genes. (FIG. 12A) Diagram of cell preparations for phenotype analyses of EC and MC differentiation. Flk1+ MPCs were incubated with only VEGF-A (50 ng/ml) (Control) and VEGF-A (50 ng/ml) plus Y27632 (10┌ M) (Y72632) for 2 days. (FIG. 12B-1 to FIG. 12B-6) Representative FACS analysis for phenotypic markers in CD144+ cells; pan-endothelial, mural, and arterial-, venous- and lymphatic EC.
Cells were harvested with 0.25% trypsin-EDTA (Invitrogen) or dissociation buffer (Invitrogen) and resuspended in HBSS/2% FBS at 1×10^6 cells per 100┌ l. The cells were incubated for 20 min with the following antibodies: biotin-conjugated anti-mouse Flk1 (clone AVAS12a1, eBioscience), allophycocyanin (APC)-conjugated anti-mouse CD140a (clone APA5, eBioscience), phycoerythrin(PE)-conjugated anti-mouse CD31 (clone 390, eBioscience), Alexa Fluor® 647-conjugated anti-mouse CD144 (clone BV13, eBioscience), PE-conjugated anti-mouse D114 (clone HMD4-1, Biolegend), PE-conjugated anti-mouse Tie2 (clone TEK4, eBioscience), PE-conjugated anti-mouse Endoglin (clone MJ7/18, Biolegend), anti-mouse ICAM2 (clone 3C4, Biolegend), APC-conjugated anti-mouse CD140b (clone APBS, eBioscience), PE-conjugated anti-mouse LYVE1 (clone ALY7, eBioscience), anti-mouse VEGFR3 (goat polyclonal, R&D systems), anti-mouse EphB4 (clone VEB4-7E4, Hycult biotech), and PE-conjugated anti-mouse Notch1 (clone HMN1-12, Biolegend). After washing in HBSS/2% FBS twice, the cells were incubated with the following secondary antibodies: PE-conjugated streptavidin (eBioscience), PE-conjugated anti-rat IgG2a (eBioscience), and FITC-conjugated anti-goat IgG (Invitrogen). Dead cells were excluded by 7-aminoactinomycin D (7-AAD, Invitrogen).

[3] = Y27632 10 μM, VEGF-A 50 ng/ml for 10 min
[4] = regardless of VEGF-A stimulation

## C[C@@H](N)[C@H]1CC[C@H](C(=O)Nc2ccncc2)CC1 [Y27632]
CD144+ ECs [1]; 12 hrs
  increase of BrdU+/CD144+ EC population: 1.7 fold
CD144+ ECs [1]; 36 hrs
  increase of BrdU+/CD144+ EC population: 2.7 fold
  increase of population of CD144+ ECs in S phase compared to control: 1.23 fold
  reduction of CD144+ ECs in G0/G1 phase compared to control: 12%
Flk1+ MPCs; [3]
  phosphorylation of Akt (Ser473): phosphorylated
  phosphorylation of ERK: but not ERK
  phosphorylation of PTEN (Ser380, Thr382 and Thr383): phosphorylated
Flk1+ MPCs; [4]
  phosphorylation of MLC: almost completely reduced; also recorded: inhibits
  phosphorylation of MyPT: almost completely reduced
  protein levels of αSMA: reduced
CD144+ ECs [2]
  population of CD144+ ECs expressing pan-endothelial cell surface markers (Flk1, Tie2, endoglin and ICAM2) compared to control: ~2.0 fold
  population of CD144+ ECs that express D114 (arterial): 4.6 fold
  population of CD144+ ECs that express EphB4 (venous): 2.4 fold
  population of CD144+ ECs that express LYVE-1 (lymphatic): 2.1 fold
  population of CD144+ ECs that express Notch1 (arterial): 2.4 fold
  population of CD144+ ECs that express VEGFR3 (lymphatic): 3.8 fold
  populations of cells expressing αSMA and CD140b: markedly reduced
